Test [1] has as its target T1, Polyunsaturated fatty acid 5-lipoxygenase (Rattus norvegicus, UniProt P12527).
T1 sequence (P12527 whole entry): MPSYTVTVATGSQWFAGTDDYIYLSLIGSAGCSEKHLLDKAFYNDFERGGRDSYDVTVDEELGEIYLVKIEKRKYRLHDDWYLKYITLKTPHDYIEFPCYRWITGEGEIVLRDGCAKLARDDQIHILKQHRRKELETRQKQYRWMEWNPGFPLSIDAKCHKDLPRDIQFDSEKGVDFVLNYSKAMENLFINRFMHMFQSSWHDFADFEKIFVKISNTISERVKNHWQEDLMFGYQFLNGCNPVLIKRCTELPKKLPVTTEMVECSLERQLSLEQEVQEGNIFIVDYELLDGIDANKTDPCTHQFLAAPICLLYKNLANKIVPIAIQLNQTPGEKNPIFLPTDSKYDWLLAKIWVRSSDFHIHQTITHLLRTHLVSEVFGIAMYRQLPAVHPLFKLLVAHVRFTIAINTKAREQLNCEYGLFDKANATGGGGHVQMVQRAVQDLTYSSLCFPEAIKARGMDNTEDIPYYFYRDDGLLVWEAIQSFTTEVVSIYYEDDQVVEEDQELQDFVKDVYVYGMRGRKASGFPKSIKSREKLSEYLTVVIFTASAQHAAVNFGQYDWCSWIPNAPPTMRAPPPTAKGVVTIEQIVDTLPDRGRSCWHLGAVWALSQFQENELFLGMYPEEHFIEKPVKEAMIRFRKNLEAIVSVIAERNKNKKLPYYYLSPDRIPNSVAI
Nature of the test: In vitro inhibition of RBL-1 5-lipoxygenase; Value ranges from 0.4-2.2. In kind it is cell-based.

The test system of test [2] is Rattus norvegicus. Nature of the test: (§1) In vivo activity against the release of SRS(slow releasing substance)-A in a rat passive intraperitoneally. In kind it is functional. On the set-up: concentration or dose not given beside the values.
Test [3] addresses T1, Polyunsaturated fatty acid 5-lipoxygenase. Nature of the test: In vitro inhibition of RBL-1 5-lipoxygenase; Value ranges from 3.8-7.1. In kind it is cell-based.
The target is the same in test [4]. Nature of the test: In vitro inhibition of RBL-1 5-lipoxygenase; Value ranges from 4.0-6.4. In kind it is cell-based.
Test [5] has the same target. The experiment in a line: In vitro inhibition of RBL-1 5-lipoxygenase; Value ranges from 1.1-1.6. In kind it is cell-based.
Test [6] has as its system Rattus norvegicus. The experiment in a line: Inhibition of monocyte accumulation (exudate volume) in a rat pleural exudate model of inflammation at 45 ug administered perorally. In kind it is functional.
Test [7] relates to Rattus norvegicus. The experiment in a line: Inhibition of monocyte accumulation (DNA content) in a rat pleural exudate model of inflammation at 45 ug administered perorally. In kind it is functional.
The target in test [8] is T2, Polyunsaturated fatty acid 5-lipoxygenase (Rattus norvegicus) (UniProt P12527).
T2 sequence (whole entry): T1 sequence (P12527 whole entry)
The experiment in a line: In vitro inhibition of RBL-1 5-lipoxygenase at 20 uM. In kind it is cell-based.

Test [9] concerns Rattus norvegicus. The test is described as §1. In kind it is functional.
Test [10] has as its target T1, Polyunsaturated fatty acid 5-lipoxygenase. The experiment in a line: In vitro inhibition of RBL-1 5-lipoxygenase; Value ranges from 1.7-2.6. In kind it is cell-based.
Test [11] has the same target. Nature of the test: In vitro inhibition of RBL-1 5-lipoxygenase. In kind it is cell-based.
Test [12] has the same target. The experiment in a line: In vitro inhibition of RBL-1 5-lipoxygenase; Value ranges from 1.9-2.4. In kind it is cell-based.
Test [13] has the same target. The experiment in a line: In vitro inhibition of RBL-1 5-lipoxygenase; Value ranges from 1.8-5.7. In kind it is cell-based.
The target is the same in test [14]. Nature of the test: In vitro inhibition of RBL-1 5-lipoxygenase; Value ranges from 4.9-11.6. In kind it is cell-based.
The target is the same in test [15]. Nature of the test: In vitro inhibition of RBL-1 5-lipoxygenase; Value ranges from 1.8-2.8. In kind it is cell-based.
The subject of test [16] is Rattus norvegicus. The experiment in a line: Inhibition of monocyte accumulation (exudate volume) in a rat pleural exudate model of inflammation at 3 ug/kg administered perorally. The settings on record: po. In kind it is functional.
For test [17], the system named is Rattus norvegicus. The experiment in a line: Inhibition of monocyte accumulation (exudate volume) in a rat pleural exudate model of inflammation at 24 ug/kg administered perorally. In kind it is functional. The settings on record: po.
Test [18] relates to Rattus norvegicus. Nature of the test: Inhibition of monocyte accumulation (exudate volume) in a rat pleural exudate model of inflammation at 6 ug/kg administered perorally. In kind it is functional. As to conditions: po.
The target of test [19] is T1, Polyunsaturated fatty acid 5-lipoxygenase. Nature of the test: In vitro inhibition of RBL-1 5-lipoxygenase; Value ranges from 1.3-2.8. In kind it is cell-based.
Test [20] has the same target. Nature of the test: In vitro inhibition of RBL-1 5-lipoxygenase; Value ranges from 1.4-3.2. In kind it is cell-based.
Test [21] has the same target. The experiment in a line: In vitro inhibition of RBL-1 5-lipoxygenase; Value ranges from 1.0-2.4. In kind it is cell-based.
For test [22] the target is unchanged. Nature of the test: In vitro inhibition of RBL-1 5-lipoxygenase; Value ranges from 1.0-1.7. In kind it is cell-based.
The target is the same in test [23]. Nature of the test: In vitro inhibition of RBL-1 5-lipoxygenase; Value ranges from 0.9-4.0. In kind it is cell-based.
The target is the same in test [24]. Nature of the test: In vitro inhibition of RBL-1 5-lipoxygenase; Value ranges from 0.3-1.6. In kind it is cell-based.
Test [25] has the same target. Nature of the test: In vitro inhibition of RBL-1 5-lipoxygenase; Value ranges from 3.3-3.5. In kind it is cell-based.
For test [26] the target is unchanged. Nature of the test: In vitro inhibition of RBL-1 5-lipoxygenase; Value ranges from 7.5-11.8. In kind it is cell-based.
Test [27] has the same target. Nature of the test: In vitro inhibition of RBL-1 5-lipoxygenase; Value ranges from 2.46-2.63. In kind it is cell-based.
Test [28] has the same target. Nature of the test: In vitro inhibition of RBL-1 5-lipoxygenase; Value ranges from 1.0-1.5. In kind it is cell-based.
Test [29] shares this target. The experiment in a line: In vitro inhibition of RBL-1 5-lipoxygenase; Value ranges from […]. In kind it is cell-based.

By IC50 is commonly meant the concentration that inhibits the measured activity by half. Molecule `Cc1ccc(O)c2nc(Cc3ccccc3)[nH]c12` gave an IC50 in [1] of 1.2 µM.

As usually defined, the Inhibition is the relative decrease from the control value, in per cent. In turn, `COc1ccc(Cc2nc3c(C)ccc(O)c3[nH]2)cc1OC.Cl` came in with an Inhibition in the test with Rattus norvegicus [2] of 55%. Further, the IC50 in test [3] was determined as 5.2 µM. With `Cc1ccc(O)c2nc(Cc3cccnc3)[nH]c12`, in [4], the IC50 amounted to 5 µM. For `Cc1cc(C(C)(C)C)c(O)c2[nH]c(Cc3ccccc3)nc12`, the IC50 in test [5] turned out to be 1.3 µM. As to `C[C@@H]1C[C@H]2[C@@H]3CCC4=CC(=O)C=C[C@]4(C)[C@@]3(F)[C@@H](O)C[C@]2(C)[C@@]1(O)C(=O)CO` [DEXAMETHASONE], the Inhibition with Rattus norvegicus [6] is on record as 80%; in the test on Rattus norvegicus [7] it was 71%.

As usually defined, the inhibition is the percentage by which the read-out fell short of the control. As for `Cc1ccc(O)c2[nH]c(Cc3ccc4ccccc4c3)nc12`, the inhibition in test [8] is > 90%. With `COc1ccc(Cc2nc3c(C)ccc(O)c3[nH]2)cc1.Cl`, the Inhibition in the test on Rattus norvegicus [9] came out at 58%. In addition, the IC50 in test [10] came out at 2.1 µM. In test [11], `Oc1cccc2[nH]c(Cc3ccccc3)nc12` showed an IC50 of 20 µM.

For `Cc1ccc(O)c2[nH]c(Cc3cccs3)nc12`, half-maximal inhibition in test [12] (IC50) required 2.1 µM.

`Cc1ccc(O)c2[nH]c(-c3ccco3)nc12` returned a half-inhibitory concentration (IC50) in test [13] of 3.3 µM.

On to `Cc1ccc(O)c2[nH]c(Cc3ccc(O)cc3)nc12.Cl`, for which the Inhibition in the test with Rattus norvegicus [2] was determined as 58%. This molecule also came in with an IC50 in [14] of 6.9 µM. In test [15], `Cc1ccc(O)c2[nH]c(Cc3cccc4ccccc34)nc12` had an IC50 of 2.3 µM. The inhibition in vivo is the drop in the measured response relative to a control, in per cent. In turn, `Cc1cc(C(C)(C)C)c(O)c2[nH]c(C(F)(F)F)nc12` came in with an inhibition in vivo at 0.003 mg/kg in the test with Rattus norvegicus [16] of 52%. In addition, the inhibition in vivo at 0.024 mg/kg with Rattus norvegicus [17] was 48%. This molecule came in with an inhibition in vivo at 0.006 mg/kg with Rattus norvegicus [18] of 49%. Molecule `Cc1ccc(O)c2[nH]c(CCc3ccccc3)nc12` displayed an IC50 in test [19] of 2.1 µM.

As to `COc1ccc(-c2nc3c(C)ccc(O)c3[nH]2)cc1`, the IC50 in test [20] is 2.2 µM. In turn, `COc1cccc(Cc2nc3c(C)ccc(O)c3[nH]2)c1` displayed an IC50 in [21] of 1.7 µM. Molecule `O=C1CCN(c2ccccc2)N1` [PHENIDONE] had an Inhibition in the test with Rattus norvegicus [2] of 70%. For the molecule `Cc1ccc(O)c2[nH]c(-c3ccc(N(C)C)cc3)nc12`, the IC50 in test [22] stood at 1.3 µM.

`COc1ccc(Cc2nc3c(O)cccc3[nH]2)cc1` yielded an IC50 in test [11] of 20 µM. `NC1=NN(c2cccc(C(F)(F)F)c2)CC1` [BW-755C] yielded an Inhibition in the test with Rattus norvegicus [2] of 25%. The molecule `COc1ccc(Cc2nc3c(C)cc(C(C)(C)C)c(O)c3[nH]2)cc1` showed an IC50 in test [23] of 2.2 µM. In the case of `Cc1ccc(O)c2[nH]c(-c3cccc(C(F)(F)F)c3)nc12`, the inhibition in test [8] is > 90%. In turn, `Cc1ccc(O)c2[nH]c(Cc3ccc(Cl)cc3)nc12` returned an IC50 in test [24] of 1 µM. `COc1ccccc1Cc1nc2c(C)ccc(O)c2[nH]1.Cl` returned an Inhibition with Rattus norvegicus [2] of 64%. Besides, the IC50 in [25] came out at 3.4 µM. For the molecule `CCCc1nc2c(C)ccc(O)c2[nH]1`, the IC50 in test [11] was ~10 µM. In the case of `COc1cc(Cc2nc3c(C)ccc(O)c3[nH]2)cc(OC)c1OC.Cl`, in the test on Rattus norvegicus [2], the Inhibition was determined as 59%. Also, in test [26], the IC50 was determined as 9.7 µM. On to `CC1=C(C)C(=O)C(CCCCC#CCCCC#CCO)=C(C)C1=O` [DOCEBENONE], for which the Inhibition in the test with Rattus norvegicus [2] is on record as 77%. The molecule further displayed an IC50 in test [11] of 2 µM. Molecule `Cc1ccc(Cc2nc3c(O)ccc(C)c3[nH]2)cc1` displayed an IC50 in [27] of 2.54 µM. `Cc1ccc(O)c2[nH]c(-c3ccccc3)nc12` showed an IC50 in [28] of 1.2 µM. In [29], `CCOc1ccc(Cc2nc3c(C)ccc(O)c3[nH]2)cc1` had an IC50 of 3 µM.

For the molecule `CC(Cc1ccc(O)c(O)c1)C(C)Cc1ccc(O)c(O)c1` (stereo not given) [NORDIHYDROGUAIARETIC ACID], the Inhibition in the test with Rattus norvegicus [2] is 64%.

Source of the values: ChEMBL document CHEMBL1123560, “Novel 1H-benzimidazol-4-ols with potent 5-lipoxygenase inhibitory activity” (J Med Chem, 1987).
